Data reported in ChEMBL document CHEMBL2007661, “Compounds: GSK PKIS; Assays: UNC Frye lab” (2012).
Where “and” joins values, the source holds several entries; their conditions need not be identical. Equal entries are not always repeated.

What was measured:
[1] = molecular target: T1, Inhibitor of nuclear factor kappa-B kinase subunit alpha (Homo sapiens) (UniProt O15111); details: at 1 µM
T1 sequence (whole entry): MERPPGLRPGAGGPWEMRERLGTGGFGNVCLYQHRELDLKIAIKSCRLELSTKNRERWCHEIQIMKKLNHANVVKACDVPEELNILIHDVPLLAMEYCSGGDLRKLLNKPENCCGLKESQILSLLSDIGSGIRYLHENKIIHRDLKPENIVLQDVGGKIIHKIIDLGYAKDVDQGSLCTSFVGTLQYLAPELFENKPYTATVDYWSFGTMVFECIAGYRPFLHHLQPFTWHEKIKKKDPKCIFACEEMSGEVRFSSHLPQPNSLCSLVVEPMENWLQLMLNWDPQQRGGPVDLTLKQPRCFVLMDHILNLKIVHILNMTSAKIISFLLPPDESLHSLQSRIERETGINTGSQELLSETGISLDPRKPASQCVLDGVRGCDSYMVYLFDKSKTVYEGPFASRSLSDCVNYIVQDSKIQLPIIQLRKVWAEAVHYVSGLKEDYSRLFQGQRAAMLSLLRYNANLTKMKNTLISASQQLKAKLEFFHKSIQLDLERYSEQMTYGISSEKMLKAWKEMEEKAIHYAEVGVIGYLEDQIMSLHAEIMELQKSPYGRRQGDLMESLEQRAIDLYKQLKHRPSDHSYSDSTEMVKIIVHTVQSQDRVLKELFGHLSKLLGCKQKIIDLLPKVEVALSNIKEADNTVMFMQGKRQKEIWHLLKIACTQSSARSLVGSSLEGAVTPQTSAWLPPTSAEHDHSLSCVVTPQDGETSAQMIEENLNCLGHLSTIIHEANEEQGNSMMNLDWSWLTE

[2] = molecular target: T2, Tyrosine-protein kinase Mer (Homo sapiens) (UniProt Q12866); details: at 10 µM
T2 sequence (whole entry): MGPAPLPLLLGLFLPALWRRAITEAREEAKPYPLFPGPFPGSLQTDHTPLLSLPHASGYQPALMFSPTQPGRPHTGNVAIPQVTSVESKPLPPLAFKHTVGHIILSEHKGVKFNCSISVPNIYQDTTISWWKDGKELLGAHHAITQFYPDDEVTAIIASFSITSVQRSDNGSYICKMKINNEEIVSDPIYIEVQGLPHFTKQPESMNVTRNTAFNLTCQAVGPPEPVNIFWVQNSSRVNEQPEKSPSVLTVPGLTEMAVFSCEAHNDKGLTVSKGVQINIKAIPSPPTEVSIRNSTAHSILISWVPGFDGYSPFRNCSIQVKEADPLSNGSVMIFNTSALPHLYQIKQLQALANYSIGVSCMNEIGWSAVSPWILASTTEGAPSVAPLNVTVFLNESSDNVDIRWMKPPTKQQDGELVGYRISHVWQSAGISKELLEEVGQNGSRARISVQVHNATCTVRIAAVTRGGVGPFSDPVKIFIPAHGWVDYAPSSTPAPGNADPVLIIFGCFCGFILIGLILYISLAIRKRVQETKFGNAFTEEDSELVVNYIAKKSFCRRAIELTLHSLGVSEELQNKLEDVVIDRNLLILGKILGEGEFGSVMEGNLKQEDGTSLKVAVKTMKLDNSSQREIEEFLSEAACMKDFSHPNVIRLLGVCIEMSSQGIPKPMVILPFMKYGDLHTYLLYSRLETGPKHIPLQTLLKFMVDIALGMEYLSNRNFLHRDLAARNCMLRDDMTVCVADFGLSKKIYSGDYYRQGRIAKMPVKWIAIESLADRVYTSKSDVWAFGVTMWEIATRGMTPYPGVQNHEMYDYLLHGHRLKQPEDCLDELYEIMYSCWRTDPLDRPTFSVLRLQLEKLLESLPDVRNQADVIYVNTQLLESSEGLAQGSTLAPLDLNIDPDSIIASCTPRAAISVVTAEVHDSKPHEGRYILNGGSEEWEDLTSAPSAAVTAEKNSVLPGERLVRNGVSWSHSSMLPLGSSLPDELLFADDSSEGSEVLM

[3] = molecular target: T3, Inhibitor of nuclear factor kappa-B kinase subunit beta (Homo sapiens) (UniProt O14920); details: at 1 µM
T3 sequence (whole entry): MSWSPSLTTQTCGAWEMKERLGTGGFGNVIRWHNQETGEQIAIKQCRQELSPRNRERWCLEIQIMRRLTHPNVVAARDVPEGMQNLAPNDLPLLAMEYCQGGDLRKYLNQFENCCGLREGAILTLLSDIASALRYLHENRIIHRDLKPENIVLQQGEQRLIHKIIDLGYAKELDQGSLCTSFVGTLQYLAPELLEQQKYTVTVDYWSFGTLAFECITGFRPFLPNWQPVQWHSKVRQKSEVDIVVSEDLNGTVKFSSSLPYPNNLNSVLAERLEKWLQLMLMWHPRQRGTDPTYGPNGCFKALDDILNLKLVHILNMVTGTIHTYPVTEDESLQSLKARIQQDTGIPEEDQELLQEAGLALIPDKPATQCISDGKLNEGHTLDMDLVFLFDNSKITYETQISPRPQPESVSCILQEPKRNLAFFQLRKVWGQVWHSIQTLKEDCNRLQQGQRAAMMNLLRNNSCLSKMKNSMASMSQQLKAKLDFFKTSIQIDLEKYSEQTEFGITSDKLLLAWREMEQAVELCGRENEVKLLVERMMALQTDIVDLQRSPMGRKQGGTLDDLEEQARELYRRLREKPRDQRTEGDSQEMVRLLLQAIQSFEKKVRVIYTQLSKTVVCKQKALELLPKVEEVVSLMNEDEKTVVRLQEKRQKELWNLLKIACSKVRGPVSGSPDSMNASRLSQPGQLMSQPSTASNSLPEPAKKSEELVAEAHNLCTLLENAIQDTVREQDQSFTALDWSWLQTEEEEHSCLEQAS

inhibition [1]	inhibition [2]	inhibition [3]	SMILES
3% and 2%	-3%	-6% and -5%	CCn1c(-c2nonc2N)nc2c(N3CCCC3)nccc21
2% and 9%	-5%	-2% and -4%	COc1cc(N2CCN(C(C)C)CC2)ccc1Nc1nc(Nc2cccc3ncccc23)c2cc[nH]c2n1
-8% and -5%	-4%	3% and 2%	Cc1cc(O)cc(C)c1/C=C/c1cncc(C(=O)N(C)C)c1
1% and 0%	101%	-1% and -4%	NC(=O)c1sc(-n2cnc3ccc(C(F)(F)F)cc32)cc1OCc1ccccc1Br
2% and -1%	32%	-4% and -10%	CC(C)c1ccc(Nc2nccc(-c3cnn4ncccc34)n2)cc1
-3% and -2%	2%	-2% and 0%	COC(=O)Nc1nc2ccc(Oc3ccc(NC(=O)Nc4cccc(Cl)c4)cc3)cc2[nH]1

Continued, molecule first:

SMILES	inhibition [1]	inhibition [2]	inhibition [3]
Nc1nc(-c2ccc3c(c2)C(=Cc2cc(Br)c(O)c(Br)c2)C(=O)N3)cs1	4% and 2%	-8%	-8%
CS(=O)(=O)CCNCc1ccc(-c2ccc3ncnc(Nc4ccc(OCc5ccccc5)cc4)c3c2)o1	3%	-3%	-2% and -3%
CCn1cc(-c2ccnc3[nH]ccc23)c(-c2cccc(NC(=O)Nc3ccc(OCc4ccccc4)cc3)c2)n1	-3%	-1%	-3% and 0%
Nc1nonc1-c1nc2cnccc2n1C1CC1	29% and 33%	48%	-3% and 2%
CCn1c(-c2nonc2N)nc2cnc(Oc3cccc(NC(=O)c4ccc(N(C)C)cc4)c3)cc21	5% and 9%	-6%	-1% and -2%
NS(=O)(=O)c1ccc(N/N=C2\C(=O)Nc3cccc(CCc4ccncc4)c32)cc1	5%	-5%	-7%
CCN1CCC(CC(=O)Nc2n[nH]c3nc(-c4cccs4)c(Br)cc23)CC1	-9% and 5%	-2%	-4% and -3%
CN(C)C(=O)O[C@H]1CN[C@H](C#Cc2cc3ncnc(Nc4ccc(OCc5cccc(F)c5)c(Cl)c4)c3s2)C1	2% and 1%	2%	4% and -2%
CC(C)(CO)CNC(=O)c1ccc2c(c1)/C(=N/Nc1ccc(S(N)(=O)=O)cc1)C(=O)N2	-7% and 1%	9%	-2%
NS(=O)(=O)c1ccc(N/N=C2\C(=O)Nc3ccc(C(=O)NCCCn4ccnc4)cc32)cc1	-3% and -4%	-4%	-1%
